Data reported in ChEMBL document CHEMBL4251560, “The Novel 4-Phenyl-2-Phenoxyacetamide Thiazoles modulates the tumor hypoxia leading to the crackdown of neoangiogenesis and evoking the cell death” (Eur J Med Chem, 2018).
Calls of active or inactive are those of the source. No cut-off for these calls is given here.

Legend:
[1] = Cytotoxicity against mouse DLA cells assessed as reduction in cell viability after 48 hrs by MTT assay; assay type: functional, cell-based
Ehrlich [2] = experiment: Antitumor activity against mouse EAC cells implanted in Swiss albino mouse assessed as mouse survival at 25 to 50 mg/kg, ip administered every alternate day for 3 days; assay type: functional
Mus musculus [3] = experiment: Up-regulation of MDM2 protein expression in Swiss albino mouse EAC cells implanted with mouse EAC at 25 to 50 mg/kg, ip administered every alternate day for 3 days by immunoblot analysis; assay type: functional, organism-based
Ehrlich [4] = experiment: Antitumor activity against mouse EAC cells implanted in Swiss albino mouse assessed as decrease in tumor volume at 50 mg/kg, ip administered every alternate day for 3 days; assay type: functional; conditions: 72 h, read-out: TGI
Ehrlich [5] = experiment: Antitumor activity against mouse EAC solid tumor implanted in Swiss albino mouse assessed as reduction in tumor growth at 25 mg/kg, ip administered every alternate day for 3 days by animal morphology analysis; assay type: functional, organism-based
MDA-MB-468 [6] = experiment: Cytotoxicity against human MDA-MB-468 cells assessed as reduction in cell viability after 48 hrs by MTT assay; assay type: functional, cell-based; conditions: MDA-MB-468, 48 h
MCF7 [7] = experiment: Cytotoxicity against human MCF7 cells assessed as reduction in cell viability after 48 hrs by MTT assay; assay type: functional, cell-based; conditions: MCF7, 48 h
A549 [8] = experiment: Cytotoxicity against human A549 cells assessed as reduction in cell viability after 48 hrs by trypan blue exclusion assay; assay type: functional, cell-based; conditions: A549, 48 h
Mus musculus [9] = experiment: Toxicity in Swiss albino mouse implanted with mouse EAC cells assessed as induction of adverse effect on liver at 25 to 50 mg/kg, ip administered every alternate day for 3 days; assay type: organism-based; conditions: in vivo, 72 h
A549 [10] = experiment: Cytotoxicity against human A549 cells assessed as reduction in cell viability after 48 hrs by MTT assay; assay type: functional, cell-based; conditions: A549, 48 h
Ehrlich [11] = experiment: In vivo antiangiogenic activity in mouse EAC implanted in Swiss albino mouse administered ip assessed as regression of tumor-induced angiogenesis in peritoneum administered every alternate day for 3 days; assay type: functional, organism-based
Ehrlich [12] = experiment: Antitumor activity against mouse EAC solid tumor implanted in ip dosed Swiss albino mouse assessed as reduction in tumor volume administered every alternate day for 3 days; assay type: functional, organism-based
Ehrlich [13] = experiment: Cytotoxicity against mouse EAC cells assessed as reduction in cell viability after 48 hrs by MTT assay; assay type: functional, cell-based
Chorioallantoic membrane = experiment: In vivo antiangiogenic activity in chicken chorioallantoic membrane assessed as inhibition of recombinant VEGF165-induced vessel formation after 3 days; assay type: functional, Gallus gallus
MDA-MB-468 [14] = experiment: Cytotoxicity against human MDA-MB-468 cells assessed as reduction in cell viability after 48 hrs by trypan blue exclusion assay; assay type: functional, cell-based; conditions: MDA-MB-468, 48 h
Mus musculus [15] = experiment: In vivo induction of apoptosis in mouse EAC cells implanted in Swiss albino mouse assessed as DNA fragmentation at 25 to 50 mg/kg, ip administered every alternate day for 3 days by DNA fragmentation assay; assay type: functional, organism-based
Mus musculus [16] = experiment: Up-regulation of p53 protein expression in Swiss albino mouse EAC cells implanted with mouse EAC at 25 to 50 mg/kg, ip administered every alternate day for 3 days by immunoblot analysis; assay type: functional, organism-based
Mus musculus [17] = experiment: In vivo inhibition of HIF-1alpha expression in Swiss albino mouse EAC cells implanted with mouse EAC at 25 to 50 mg/kg, ip administered every alternate day for 3 days by immunoblot analysis; assay type: functional, organism-based
Ehrlich [18] = experiment: Antitumor activity against mouse EAC cells implanted in Swiss albino mouse assessed as decrease in tumor volume at 25 mg/kg, ip administered every alternate day for 3 days; assay type: functional; conditions: 72 h, read-out: TGI
Mus musculus [19] = experiment: Toxicity in Swiss albino mouse implanted with mouse EAC cells assessed as induction of adverse effect on spleen at 25 to 50 mg/kg, ip administered every alternate day for 3 days; assay type: organism-based; conditions: in vivo, 72 h
MCF7 [20] = experiment: Cytotoxicity against human MCF7 cells assessed as reduction in cell viability after 48 hrs by trypan blue exclusion assay; assay type: functional, cell-based; conditions: MCF7, 48 h
Ehrlich [21] = experiment: In vivo induction of apoptosis in mouse EAC cells implanted in Swiss albino mouse assessed as EAC cell shrinkage at 25 to 50 mg/kg, ip administered every alternate day for 3 days by Geimsa staining-based microscopic analysis; assay type: functional, organism-based
Ehrlich [22] = experiment: Antitumor activity against mouse EAC cells implanted in ip dosed Swiss albino mouse assessed as reduction in ascite volume administered every alternate day for 3 days; assay type: functional
Cornea = experiment: Antiangiogenic activity in cornea of alkali injured rat eye assessed as induction of restraining of vessel sprouting applied to centre of cornea for 40 secs post alkali injury; assay type: functional
Mus musculus [23] = experiment: In vivo inhibition of VEGF secretion in Swiss albino mouse EAC cells implanted with mouse EAC at 25 to 50 mg/kg, ip administered every alternate day for 3 days by ELISA; assay type: functional, organism-based
[24] = Cytotoxicity against mouse DLA cells assessed as reduction in cell viability after 48 hrs by trypan blue exclusion assay; assay type: functional, cell-based
Ehrlich [25] = experiment: Antitumor activity against mouse EAC cells implanted in ip dosed Swiss albino mouse assessed as decrease in tumor volume administered every alternate day for 3 days; assay type: functional, organism-based
Ehrlich [26] = experiment: In vivo antiangiogenic activity in mouse EAC implanted in Swiss albino mouse assessed as regression of tumor-induced angiogenesis in peritoneum at 5 mg/kg, ip administered every alternate day for 3 days; assay type: functional; conditions: 72 h
Ehrlich [27] = experiment: Cytotoxicity against mouse EAC cells assessed as reduction in cell viability after 48 hrs by trypan blue exclusion assay; assay type: functional, cell-based
Ehrlich [28] = experiment: In vivo induction of apoptosis in mouse EAC cells implanted in Swiss albino mouse assessed as induction of EAC cell irregular shape at 25 to 50 mg/kg, ip administered every alternate day for 3 days by Geimsa staining-based microscopic analysis; assay type: functional, organism-based
Ehrlich [29] = experiment: Antitumor activity against mouse EAC solid tumor implanted in Swiss albino mouse assessed as reduction in tumor mass at 25 mg/kg, ip administered every alternate day for 3 days; assay type: functional
Ehrlich [30] = experiment: In vivo induction of apoptosis in mouse EAC cells implanted in Swiss albino mouse assessed as EAC cell membrane blebbing at 25 to 50 mg/kg, ip administered every alternate day for 3 days by Geimsa staining-based microscopic analysis; assay type: functional, organism-based
Ehrlich [31] = experiment: In vivo antiangiogenic activity in mouse EAC implanted in Swiss albino mouse assessed as regression of tumor-induced angiogenesis in peritoneum at 25 mg/kg, ip administered every alternate day for 3 days; assay type: functional; conditions: 72 h
Ehrlich [32] = experiment: Antitumor activity against mouse EAC cells implanted in ip dosed Swiss albino mouse assessed as reduction in cell density administered every alternate day for 3 days; assay type: functional

Cc1ccc(-c2csc(NC(=O)COc3ccc(F)cc3F)n2)cc1
IC50 [1]: 13.4 µM
Survival (Ehrlich [2]): >=23 - 25 day
Activity (Mus musculus [3]): Active
inhibition in vivo at 50 mg/kg (Ehrlich [4]): 80.2%
TGI (Ehrlich [5]): Active
IC50 (MDA-MB-468 [6]): 10.5 µM
IC50 (MCF7 [7]): 14.5 µM
IC50 (A549 [8]): 13.2 µM
Activity (Mus musculus [9]): Non-Toxic
IC50 (A549 [10]): 13.9 µM
Activity (Ehrlich [11]): Dose-dependent effect
Activity (Ehrlich [12]): Dose-dependent effect
IC50 (Ehrlich [13]): 14.9 µM
inhibition (INH) (Chorioallantoic membrane): 80%
IC50 (MDA-MB-468 [14]): 10.2 µM
Activity (Mus musculus [15]): Active
Activity (Mus musculus [16]): Active
inhibition (Mus musculus [17]): Active
inhibition in vivo at 25 mg/kg (Ehrlich [18]): 74.3%
Activity (Mus musculus [19]): Non-Toxic
IC50 (MCF7 [20]): 14 µM
Activity (Ehrlich [21]): Active
Activity (Ehrlich [22]): Dose-dependent effect
fold change (FC) (Ehrlich [22]): 3 - 4
Activity (Cornea): 60%
inhibition (Mus musculus [23]): Active
IC50 [24]: 13.9 µM
Activity (Ehrlich [25]): Dose-dependent effect
inhibition in vivo at 5 mg/kg (Ehrlich [26]): 10%
IC50 (Ehrlich [27]): 14 µM
Activity (Ehrlich [28]): Active
Activity (Ehrlich [29]): <=10 g
Activity (Ehrlich [30]): Active
inhibition in vivo at 25 mg/kg (Ehrlich [31]): 30%
fold change (FC) (Ehrlich [32]): 6
